The subject of test [1] is Staphylococcus aureus 133. As to the kind of experiment: Minimum inhibitory concentration (MIC) in the plate test. To be noted: pH 7.4. The format is cell-based. The text has this:
(§1) The compounds according to the invention are effective against Gram-negative and Gram-positive bacteria. Favorable inhibition values are obtained in the plate test (Table 1) against staphylococci and streptococci which are Gram-positive bacteria, and against enterobacteria (for example Escherichia coli, Proteus and Klebsiella) which are Gram-negative bacteria.
(§2) Minimum inhibitory concentration (MIC) in the plate test:
(§3) The medium used had the following composition
(§4) Disodium phosphate 2.0 g
(§5) Adenine sulphate 0.01 g
(§6) Guanine hydrochloride 0.01 g
(§7) 1000 ml of distilled water
(§8) pH value of the medium:
(§9) Minimum inhibitory concentrations in γ/ml

Test [2] has as its system Streptococcus pyogenes W. The description is as above. The format is cell-based. The settings on record: pH 7.4.
Source text: as §1, §2, §3, §4, §5, §6, §7, §8, §9

Test [3] has as its system Proteus vulgaris. The test is described as above. The format is cell-based. To be noted: pH 7.4.
Source text: as §1, §2, §3, §4, §5, §6, §7, §8, §9

Test [4] deals with Pseudomonas aeruginosa Bonn. The test is described as above. To be noted: pH 7.4. In kind it is cell-based.
Source text: as §1, §2, §3, §4, §5, §6, §7, §8, §9

Test [5] concerns Escherichia coli C 165. Described as above. The format is cell-based. To be noted: C165, pH 7.4.
Source text: as §1, §2, §3, §4, §5, §6, §7, §8, §9

Test [6] deals with Escherichia coli A 261. Described as above. The settings on record: A261, pH 7.4. In kind it is cell-based.
Source text: as §1, §2, §3, §4, §5, §6, §7, §8, §9

Test [7] relates to Klebsiella 8085. Described as above. The settings on record: pH 7.4. The format is cell-based.
Source text: as §1, §2, §3, §4, §5, §6, §7, §8, §9

Test [8] in a line: Chick fattening experiment (fodder additive). To be noted: chicks, 20 ppm in fodder; for Ratio of total weight increase/control: control 100.0. In kind it is in vivo. The source says: The good effectiveness of the compounds according to the invention as fodder additives can be seen from the chick fattening experiment described below (Table 2).
The substances, ground with the fodder, were fed to one-day old chicks. The feeding lasted for seven weeks. Table 2 below gives the experimental data for the compound obtainable according to Example 2, for each of the 7 weeks.

Values after ≈ are worked out from the molar mass of the structure shown.

In the case of `CCCCNc1ncnc2c1[n+]([O-])c1ccccc1[n+]2[O-]` [Example 5], the MIC in test [1] was 10 µg/mL (≈ 35 µM); in test [2] it was 20 µg/mL (≈ 70.1 µM).
Regarding `[O-][n+]1c2ccccc2[n+]([O-])c2c(NCCO)ncnc21` [Example 7], the MIC in test [3] turned out to be 100 µg/mL (≈ 366 µM); in test [1], 100 µg/mL (≈ 366 µM); in test [4], 100 µg/mL (≈ 366 µM); in test [5], 100 µg/mL (≈ 366 µM); in test [6], 100 µg/mL (≈ 366 µM); in test [2], 10 µg/mL (≈ 36.6 µM). In addition, in test [7], the lowest concentration to inhibit growth (MIC) was 150 µg/mL (≈ 549 µM).
With `CC(C)Nc1ncnc2c1[n+]([O-])c1ccccc1[n+]2[O-]` [Example 4], the MIC in test [3] is 100 µg/mL (≈ 369 µM); in test [1], 10 µg/mL (≈ 36.9 µM); in test [4] it was 150 µg/mL (≈ 553 µM); in test [5], 100 µg/mL (≈ 369 µM); in test [6] it was 100 µg/mL (≈ 369 µM); in test [2] it was 20 µg/mL (≈ 73.7 µM).
For `CCCNc1ncnc2c1[n+]([O-])c1ccccc1[n+]2[O-]` [Example 3], the MIC was determined as 100 µg/mL (≈ 369 µM) in test [3]; 10 µg/mL (≈ 36.9 µM) in test [1]; 150 µg/mL (≈ 553 µM) in test [4]; 100 µg/mL (≈ 369 µM) in test [5]; 100 µg/mL (≈ 369 µM) in test [6]; 20 µg/mL (≈ 73.7 µM) in test [2]. In addition, the MIC in test [7] amounted to 100 µg/mL (≈ 369 µM).
Consider `CNc1ncnc2c1[n+]([O-])c1ccccc1[n+]2[O-]` [Example 1, 4-methylamino-pyrimido-(4,5,b)-quinoxaline-5,10-dioxide], for which the MIC in test [3] is 5 µg/mL (≈ 20.6 µM); in test [1] it was 2.5 µg/mL (≈ 10.3 µM); in test [4], 50 µg/mL (≈ 206 µM); in test [5], 5 µg/mL (≈ 20.6 µM); in test [6], 5 µg/mL (≈ 20.6 µM); in test [2], 20 µg/mL (≈ 82.2 µM). In test [7], this compound yielded an MIC of 5 µg/mL (≈ 20.6 µM).
Compound `[O-][n+]1c2ccccc2[n+]([O-])c2c(NC3CCCCC3)ncnc21` [Example 6] came in with an MIC in test [1] of 10 µg/mL (≈ 32.1 µM).
For the compound `CCNc1ncnc2c1[n+]([O-])c1ccccc1[n+]2[O-]` [Example 2], the MIC amounted to 10 µg/mL (≈ 38.9 µM) in test [3]; 5 µg/mL (≈ 19.4 µM) in test [1]; 150 µg/mL (≈ 583 µM) in test [4]; 160 µg/mL (≈ 622 µM) in test [5]; 20 µg/mL (≈ 77.7 µM) in test [6]; 20 µg/mL (≈ 77.7 µM) in test [2]. In test [7], this compound gave an MIC of 10 µg/mL (≈ 38.9 µM). Further, the Total weight increase in test [8] (week 1, control 84) came to 92 g; in test [8] (week 2, control 248) it was 262 g; in test [8] (week 3, control 429), 466 g; in test [8] (week 4, control 607) it was 678 g; in test [8] (week 5, control 922), 993 g; in test [8] (week 6, control 1250), 1310 g. The same compound displayed a Total weight increase in test [8] (week 7, control 1479) of 1574 g. Besides, the “Ratio of total weight increase/control” value is reported as 109.5% in test [8] (week 1); 105.6% in test [8] (week 2); 108.6% in test [8] (week 3); 111.7% in test [8] (week 4); 107.7% in test [8] (week 5); 104.8% in test [8] (week 6). In addition, the “Ratio of total weight increase/control” value in test [8] (week 7) stood at 106.4%.

The values above are taken from patent publication US3984554A, “Animal fodder compositions containing a 4-amino-pyrimido-( 4,5,b)-quinoxaline-5,10-dioxide and method of using same” (Bayer Aktiengesellschaft, priority 1970, dated 1976).
